The text below walks through data of patent US9511073B2, “Aromatic amides and uses thereof” (TAXIS Pharmaceuticals, Inc., priority 2011, dated 2016).

Converted amounts (≈) assume the structure as drawn.

The test system of the experiment is Staphylococcus aureus (Isolate ID ATCC 29213). Kind of experiment: Bacterial assay: MIC by broth microdilution or agar dilution (CLSI), S. aureus ATCC 29213. The format is cell-based. The settings on record: Staphylococcus aureus, ATCC29213, read-out: S. aureus MIC (μg/mL) Activity Range, S. aureus (ATCC29213). The procedure: Compounds are tested for antimicrobial activity by susceptibility testing in liquid or on solid media. Minimum inhibitory concentrations (MICs) for compounds against each strain are determined by the broth microdilution or agar dilution method according to the guidelines of the Clinical Laboratories and Standards Institute, formerly the National Committee for Clinical Laboratory Standards (Clinical Laboratories and Standards Institute. Methods for Dilution Antimicrobial Susceptibility Tests for Bacteria That Grow Aerobically; Approved Standard—Seventh Edition. Document M7-A7. CLSI, Wayne, Pa., 2006; Clinical Laboratories and Standards Institute). The bacterial strains tested include S. aureus (Staphylococcus aureus (Isolate ID ATCC 29213)) and an FtsZ mutant of this isolate (FtsZ-G196A Staphylococcus aureus (Isolate ID GG/190723/sa/1.2)). Compound MICs were determined to be in the following activity ranges “A” activity≦0.25 μg/mL; “B” activity>0.25 μg/mL-1.0 μg/mL; “C” activity>1.0 μg/mL-16 μg/mL; “D” activity>16 μg/mL and ND=not determined. The bracketed entries indicate entantiomer(s) and their activity.
In the case of `NC(=O)c1c(F)ccc(OC(CO)c2nc(Br)c(-c3ccc(C(F)(F)F)cc3)o2)c1F` (stereo not shown) [Compound 149, 3-(1-(4-bromo-5-(4-(trifluoromethyl)phenyl)oxazol-2-yl)-2-hydroxyethoxy)-2,6-difluorobenzamide], the MIC was 1 to 16 µg/mL (≈ 1.97 to 31.5 µM). Next, `Cc1cnccc1CNC(=O)OCC(Oc1ccc(F)c(C(N)=O)c1F)c1nc(-c2ccc(C(F)(F)F)cc2)c(Br)o1` (stereo not shown) [Compound 216, 2-(5-bromo-4-(4-(trifluoromethyl)phenyl)oxazol-2-yl)-2-(3-carbamoyl-2,4-difluorophenoxy)ethyl ((3-methylpyridin-4-yl)methyl)carbamate]: 0.25 to 1 µg/mL (≈ 0.381 to 1.53 µM); `NC(=O)c1c(F)ccc(OC(CO)c2nc(-c3ccc(C(F)(F)F)cc3)oc2Br)c1F` (stereo not shown) [Compound 138, 3-(1-(5-bromo-2-(4-(trifluoromethyl)phenyl)oxazol-4-yl)-2-hydroxyethoxy)-2,6-difluorobenzamide]: 1 to 16 µg/mL (≈ 1.97 to 31.5 µM).

Consider `NCC(Oc1ccc(F)c(C(N)=O)c1F)c1nc(-c2ccc(C(F)(F)F)cc2)c(Br)o1` (stereo not shown) [Compound 290, 3-(2-amino-1-(5-bromo-4-(4-(trifluoromethyl)phenyl)oxazol-2-yl)ethoxy)-2,6-difluorobenzamide], for which the MIC was 1 to 16 µg/mL (≈ 1.98 to 31.6 µM). With `NC(=O)c1c(F)ccc(OC(CO)c2nc(-c3ccc(N4CCCC4)c(Br)c3)c(Br)o2)c1F` (stereo not shown) [Compound 256, 3-(1-(5-bromo-4-(3-bromo-4-(pyrrolidin-1-yl)phenyl)oxazol-2-yl)-2-hydroxyethoxy)-2,6-difluorobenzamide] the figure was 1 to 16 µg/mL (≈ 1.7 to 27.2 µM). Next, `CCCCc1oc(C(CO)Oc2ccc(F)c(C(N)=O)c2F)nc1-c1ccc(C(F)(F)F)cc1` (stereo not shown) [Compound 277, 3-(1-(5-butyl-4-(4-(trifluoromethyl)phenyl)oxazol-2-yl)-2-hydroxyethoxy)-2,6-difluorobenzamide]: 1 to 16 µg/mL (≈ 2.06 to 33 µM). With `NC(=O)c1c(F)ccc(OC(COC(=O)N2CCOCC2)c2nc(-c3ccc(C(F)(F)F)cc3)c(Br)o2)c1F` (stereo not shown) [Compound 160, 2-(5-bromo-4-(4-(trifluoromethyl)phenyl)oxazol-2-yl)-2-(3-carbamoyl-2,4-difluorophenoxy)ethyl morpholine-4-carboxylate] the figure was less than 0.25 µg/mL; with `NC(=O)c1c(F)ccc(O[C@H](CO)c2nc(-c3ccc(C(=O)N4CCOCC4)cc3)c(Br)o2)c1F` [Compound 255B, (R)-3-(1-(5-bromo-4-(4-(morpholine-4-carbonyl)phenyl)oxazol-2-yl)-2-hydroxyethoxy)-2,6-difluorobenzamide], more than 16 µg/mL; with `CC(Oc1ccc(F)c(C(N)=O)c1F)c1nc(-c2ccc(C(F)(F)F)cn2)c(Cl)o1` (stereo not shown) [Compound 43], 1 to 16 µg/mL (≈ 2.23 to 35.7 µM). Turning to `CN(C)C(=O)C(Oc1ccc(F)c(C(N)=O)c1F)c1nc(-c2ccc(Cl)cc2)cs1` (stereo not shown) [Compound 31, 3-(1-(4-(4-chlorophenyl)thiazol-2-yl)-2-(dimethylamino)-2-oxoethoxy)-2,6-difluorobenzamide], the MIC lay within 1 to 16 µg/mL (≈ 2.21 to 35.4 µM). Next, `NC(=O)c1c(F)ccc(OC(CC(CO)CO)c2nc(-c3ccc(C(F)(F)F)cc3)c(Br)o2)c1F` (stereo not shown) [Compound 139, 3-(1-(5-bromo-4-(4-(trifluoromethyl)phenyl)oxazol-2-yl)-4-hydroxy-3-(hydroxymethyl)butoxy)-2,6-difluorobenzamide]: 1 to 16 µg/mL (≈ 1.77 to 28.3 µM); `Cc1nnc(CNC(=O)OCC(Oc2ccc(F)c(C(N)=O)c2F)c2nc(-c3ccc(C(F)(F)F)cc3)c(Br)o2)o1` (stereo not shown) [Compound 172, 2-(5-bromo-4-(4-(trifluoromethyl)phenyl)oxazol-2-yl)-2-(3-carbamoyl-2,4-difluorophenoxy)ethyl ((5-methyl-1,3,4-oxadiazol-2-yl)methyl)carbamate]: 0.25 to 1 µg/mL (≈ 0.387 to 1.55 µM). With `CC(=O)OCC(Oc1ccc(F)c(C(N)=O)c1F)c1nc(-c2ccc(C(F)(F)F)cc2)c(Br)o1` (stereo not shown) [Compound 37, 2-(5-bromo-4-(4-(trifluoromethyl)phenyl)oxazol-2-yl)-2-(3-carbamoyl-2,4-difluorophenoxy)ethyl acetate] the figure was 0.25 to 1 µg/mL. Next, `COCCOCC(=O)NCC(Oc1ccc(F)c(C(N)=O)c1F)c1nc(-c2ccc(C(F)(F)F)cc2)c(Br)o1` (stereo not shown) [Compound 301, 3-(1-(5-bromo-4-(4-(trifluoromethyl)phenyl)oxazol-2-yl)-2-(2-(2-methoxyethoxy)acetamido)ethoxy)-2,6-difluorobenzamide]: 1 to 16 µg/mL (≈ 1.61 to 25.7 µM); `CC(=O)OCC(COC(C)=O)CC(Oc1ccc(F)c(C(N)=O)c1F)c1nc(-c2ccc(C(F)(F)F)cc2)c(Br)o1` (stereo not shown) [Compound 133, 2-(2-(5-bromo-4-(4-(trifluoromethyl)phenyl)oxazol-2-yl)-2-(3-carbamoyl-2,4-difluorophenoxy)ethyl)propane-1,3-diyl diacetate]: more than 16 µg/mL. With `C[C@@H](Oc1cccc(C(N)=O)c1F)c1nc(-c2ccc(C(F)(F)F)cc2)c(Br)o1` [Compound 299], the MIC was in the range of 1 to 16 µg/mL (≈ 2.11 to 33.8 µM). Next, `NC(=O)c1c(F)ccc(OC(CO)c2nc(-c3cccs3)c(Br)o2)c1F` (stereo not shown) [Compound 243, 3-(1-(5-bromo-4-(thiophen-2-yl)oxazol-2-yl)-2-hydroxyethoxy)-2,6-difluorobenzamide]: 1 to 16 µg/mL (≈ 2.25 to 35.9 µM). Next, `NC(=O)c1c(F)ccc(OC(CO)c2nc(-c3ccc(Br)s3)c(Br)o2)c1F` (stereo not shown) [Compound 237, 3-(1-(5-bromo-4-(5-bromothiophen-2-yl)oxazol-2-yl)-2-hydroxyethoxy)-2,6-difluorobenzamide]: 0.25 to 1 µg/mL (≈ 0.477 to 1.91 µM). Next, `NC(=O)c1c(F)ccc(OC(COC(=O)CCN2C(=O)c3ccccc3C2=O)c2nc(-c3ccc(C(F)(F)F)cc3)c(Br)o2)c1F` (stereo not shown) [Compound 64, 2-(5-bromo-4-(4-(trifluoromethyl)phenyl)oxazol-2-yl)-2-(3-carbamoyl-2,4-difluorophenoxy)ethyl 3-(1,3-dioxoisoindolin-2-yl)propanoate]: less than 0.25 µg/mL; `NC(=O)c1c(F)ccc(OC(CO)c2nc(-c3ccc(Cl)cc3)cs2)c1F` (stereo not shown) [Compound 13, 3-(1-(4-(4-chlorophenyl)thiazol-2-yl)-2-hydroxyethoxy)-2,6-difluorobenzamide]: 0.25 to 1 µg/mL (≈ 0.609 to 2.43 µM).

As to `NC(=O)c1c(F)ccc(OC(CO)c2nc(-c3ccc(C(F)(F)F)cn3)c(Br)o2)c1F` (stereo not shown) [Compound 79, 3-(1-(5-bromo-4-(5-(trifluoromethyl)pyridin-2-yl)oxazol-2-yl)-2-hydroxyethoxy)-2,6-difluorobenzamide], the MIC lay in the range of 1 to 16 µg/mL (≈ 1.97 to 31.5 µM). With `CN(C)C(=O)c1ccc(-c2nc(C(CO)Oc3ccc(F)c(C(N)=O)c3F)oc2Br)cc1` (stereo not shown) [Compound 252, 4-(5-bromo-2-(1-(3-carbamoyl-2,4-difluorophenoxy)-2-hydroxyethyl)oxazol-4-yl)-N,N-dimethylbenzamide] the figure was more than 16 µg/mL. With `COCCOCC(Oc1ccc(F)c(C(N)=O)c1F)c1nc(-c2ccc(C(F)(F)F)cc2)c(Br)o1` (stereo not shown) [Compound 155, 3-(1-(5-bromo-4-(4-(trifluoromethyl)phenyl)oxazol-2-yl)-2-(2-methoxyethoxy)ethoxy)-2,6-difluorobenzamide] the figure was 0.25 to 1 µg/mL (≈ 0.442 to 1.77 µM); with `Cc1noc(CNC(=O)OCC(Oc2ccc(F)c(C(N)=O)c2F)c2nc(-c3ccc(C(F)(F)F)cc3)c(Br)o2)n1` (stereo not shown) [Compound 179, 2-(5-bromo-4-(4-(trifluoromethyl)phenyl)oxazol-2-yl)-2-(3-carbamoyl-2,4-difluorophenoxy)ethyl ((3-methyl-1,2,4-oxadiazol-5-yl)methyl)carbamate], less than 0.25 µg/mL; with `CCc1nc([C@@H](CO)Oc2ccc(F)c(C(N)=O)c2F)oc1Br` [Compound 275B, (R)-3-(1-(5-bromo-4-ethyloxazol-2-yl)-2-hydroxyethoxy)-2,6-difluorobenzamide], more than 16 µg/mL. Next, `COc1ccc(-c2csc(C(CO)Oc3ccc(F)c(C(N)=O)c3F)n2)cc1` (stereo not shown) [Compound 259, 2,6-difluoro-3-(2-hydroxy-1-(4-(4-methoxyphenyl)thiazol-2-yl)ethoxy)benzamide]: 1 to 16 µg/mL (≈ 2.46 to 39.4 µM); `Cc1nc(C)c(-c2nc(C(CO)Oc3ccc(F)c(C(N)=O)c3F)oc2Br)s1` (stereo not shown) [Compound 245, 3-(1-(5-bromo-4-(2,4-dimethylthiazol-5-yl)oxazol-2-yl)-2-hydroxyethoxy)-2,6-difluorobenzamide]: more than 16 µg/mL; `Cc1ccc(-c2nc(C(CO)Oc3ccc(F)c(C(N)=O)c3F)oc2Br)s1` (stereo not shown) [Compound 244, 3-(1-(5-bromo-4-(5-methylthiophen-2-yl)oxazol-2-yl)-2-hydroxyethoxy)-2,6-difluorobenzamide]: 1 to 16 µg/mL (≈ 2.18 to 34.8 µM). As for `CC(=O)NCC(Oc1ccc(F)c(C(N)=O)c1F)c1nc(-c2ccc(C(F)(F)F)cc2)c(Br)o1` (stereo not shown) [Compound 283, 3-(2-acetamido-1-(5-bromo-4-(4-(trifluoromethyl)phenyl)oxazol-2-yl)ethoxy)-2,6-difluorobenzamide], the MIC lay within 1 to 16 µg/mL (≈ 1.82 to 29.2 µM).

Take `CCCc1oc(C(CC)Oc2ccc(F)c(C(N)=O)c2F)nc1-c1ccc(Cl)cc1` (stereo not shown) [Compound 26, 3-(1-(4-(4-chlorophenyl)-5-propyloxazol-2-yl)propoxy)-2,6-difluorobenzamide]: the MIC fell in the range of 0.25 to 1 µg/mL (≈ 0.575 to 2.3 µM). With `CCC(Oc1ccc(F)c(C(N)=O)c1F)c1nc(CCO)oc1Br` (stereo not shown) [Compound 122, 3-(1-(5-bromo-2-(2-hydroxyethyl)oxazol-4-yl)propoxy)-2,6-difluorobenzamide] the figure was more than 16 µg/mL.
